Source: ChEMBL document CHEMBL4507290 (2021)

Key:
[1] = target: Tyrosine-protein kinase ABL2 (Homo sapiens) (UniProt P42684); settings: Compound concentration 1000.0 nM
[2] = target: Activin receptor type-1B (Homo sapiens) (UniProt P36896); settings: Compound concentration 1000.0 nM
[3] = target: RAC-beta serine/threonine-protein kinase (Homo sapiens) (UniProt P31751); settings: Compound concentration 1000.0 nM
[4] = target: RAC-gamma serine/threonine-protein kinase (Homo sapiens) (UniProt Q9Y243); settings: Compound concentration 1000.0 nM
RAC-gamma serine/threonine-protein kinase (Homo sapiens), sequence (Q9Y243 whole entry): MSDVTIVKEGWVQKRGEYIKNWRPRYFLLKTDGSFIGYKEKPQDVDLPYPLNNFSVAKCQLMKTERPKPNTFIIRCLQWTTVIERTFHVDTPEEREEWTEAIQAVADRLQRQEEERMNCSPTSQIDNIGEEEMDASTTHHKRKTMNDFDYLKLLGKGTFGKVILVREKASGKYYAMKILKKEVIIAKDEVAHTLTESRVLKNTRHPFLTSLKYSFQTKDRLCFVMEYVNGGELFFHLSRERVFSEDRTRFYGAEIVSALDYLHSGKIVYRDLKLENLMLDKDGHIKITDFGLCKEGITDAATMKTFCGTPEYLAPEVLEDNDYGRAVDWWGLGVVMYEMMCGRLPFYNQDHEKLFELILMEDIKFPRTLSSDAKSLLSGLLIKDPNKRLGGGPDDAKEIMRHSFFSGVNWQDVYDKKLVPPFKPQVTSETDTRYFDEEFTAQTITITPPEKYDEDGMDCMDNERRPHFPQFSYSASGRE

[5] = target: Mitogen-activated protein kinase kinase kinase 6 (Homo sapiens) (UniProt O95382); settings: Compound concentration 1000.0 nM
[6] = target: Aurora kinase B (Homo sapiens) (UniProt Q96GD4); settings: Compound concentration 1000.0 nM
[7] = target: Aurora kinase C (Homo sapiens) (UniProt Q9UQB9); settings: Compound concentration 1000.0 nM
Aurora kinase C (Homo sapiens), sequence (Q9UQB9 whole entry): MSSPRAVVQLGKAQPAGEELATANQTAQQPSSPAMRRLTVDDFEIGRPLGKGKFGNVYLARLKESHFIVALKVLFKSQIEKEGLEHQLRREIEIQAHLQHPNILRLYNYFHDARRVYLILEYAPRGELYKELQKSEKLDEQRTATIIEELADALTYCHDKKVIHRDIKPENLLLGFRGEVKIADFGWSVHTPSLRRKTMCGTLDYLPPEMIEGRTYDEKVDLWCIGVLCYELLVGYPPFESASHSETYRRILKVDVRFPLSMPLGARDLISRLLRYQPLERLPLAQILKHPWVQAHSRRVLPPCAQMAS

[8] = target: Cytoplasmic tyrosine-protein kinase BMX (Homo sapiens) (UniProt P51813); settings: Compound concentration 1000.0 nM
[9] = target: Calcium/calmodulin-dependent protein kinase kinase 1 (Homo sapiens) (UniProt Q8N5S9); settings: Compound concentration 1000.0 nM
Calcium/calmodulin-dependent protein kinase kinase 1 (Homo sapiens), sequence (Q8N5S9 whole entry, looked up): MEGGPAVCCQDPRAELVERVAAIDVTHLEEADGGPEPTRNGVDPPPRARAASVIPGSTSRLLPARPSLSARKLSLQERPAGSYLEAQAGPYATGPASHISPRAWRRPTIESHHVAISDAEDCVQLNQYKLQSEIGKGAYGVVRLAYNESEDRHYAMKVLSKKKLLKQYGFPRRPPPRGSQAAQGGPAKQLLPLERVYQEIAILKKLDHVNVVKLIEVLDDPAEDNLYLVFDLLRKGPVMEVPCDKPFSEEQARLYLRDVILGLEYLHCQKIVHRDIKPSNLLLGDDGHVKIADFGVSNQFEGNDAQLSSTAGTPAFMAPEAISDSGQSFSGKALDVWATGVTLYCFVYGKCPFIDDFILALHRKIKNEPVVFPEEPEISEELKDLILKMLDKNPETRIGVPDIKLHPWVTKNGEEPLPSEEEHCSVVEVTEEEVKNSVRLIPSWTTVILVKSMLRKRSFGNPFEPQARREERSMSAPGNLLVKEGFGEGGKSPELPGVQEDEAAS

[10] = target: Peripheral plasma membrane protein CASK (Homo sapiens) (UniProt O14936); settings: Compound concentration 1000.0 nM
[11] = target: Mitogen-activated protein kinase kinase kinase 12 (Homo sapiens) (UniProt Q12852); settings: Compound concentration 1000.0 nM
[12] = target: Dual specificity tyrosine-phosphorylation-regulated kinase 2 (Homo sapiens) (UniProt Q92630); settings: Compound concentration 1000.0 nM
[13] = target: Epidermal growth factor receptor (Homo sapiens) (UniProt P00533); settings: Compound concentration 1000.0 nM
Epidermal growth factor receptor (Homo sapiens), sequence (P00533 whole entry): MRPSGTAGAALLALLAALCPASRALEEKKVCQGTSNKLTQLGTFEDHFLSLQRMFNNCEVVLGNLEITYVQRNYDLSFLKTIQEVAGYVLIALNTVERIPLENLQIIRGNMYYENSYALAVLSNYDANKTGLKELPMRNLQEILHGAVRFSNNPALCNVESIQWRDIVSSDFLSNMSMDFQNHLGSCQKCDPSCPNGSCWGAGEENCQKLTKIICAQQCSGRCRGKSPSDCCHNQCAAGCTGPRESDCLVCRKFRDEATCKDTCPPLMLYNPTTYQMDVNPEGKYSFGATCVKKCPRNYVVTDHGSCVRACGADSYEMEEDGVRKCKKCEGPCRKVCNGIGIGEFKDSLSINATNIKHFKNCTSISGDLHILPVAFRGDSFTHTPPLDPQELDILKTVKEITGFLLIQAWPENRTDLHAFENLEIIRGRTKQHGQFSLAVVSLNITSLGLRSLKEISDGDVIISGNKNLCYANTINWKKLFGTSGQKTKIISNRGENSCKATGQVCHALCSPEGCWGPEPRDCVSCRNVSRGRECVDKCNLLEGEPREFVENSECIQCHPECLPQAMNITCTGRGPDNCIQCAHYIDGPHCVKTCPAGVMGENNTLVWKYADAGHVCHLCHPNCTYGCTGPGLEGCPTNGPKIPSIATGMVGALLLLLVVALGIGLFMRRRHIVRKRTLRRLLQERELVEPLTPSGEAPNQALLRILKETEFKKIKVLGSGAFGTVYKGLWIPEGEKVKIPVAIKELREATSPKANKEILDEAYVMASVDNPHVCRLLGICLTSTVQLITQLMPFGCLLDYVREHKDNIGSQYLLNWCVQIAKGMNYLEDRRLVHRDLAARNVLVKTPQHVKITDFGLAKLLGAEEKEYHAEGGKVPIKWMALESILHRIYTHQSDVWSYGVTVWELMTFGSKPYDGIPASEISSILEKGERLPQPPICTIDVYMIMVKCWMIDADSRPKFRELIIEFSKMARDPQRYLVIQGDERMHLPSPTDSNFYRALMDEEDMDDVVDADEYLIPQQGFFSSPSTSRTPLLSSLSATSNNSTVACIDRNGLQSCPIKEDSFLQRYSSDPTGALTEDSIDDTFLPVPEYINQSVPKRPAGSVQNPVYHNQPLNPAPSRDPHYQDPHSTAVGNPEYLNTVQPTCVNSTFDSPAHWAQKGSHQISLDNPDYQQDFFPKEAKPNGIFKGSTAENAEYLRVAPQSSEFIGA

[14] = target: Serine/threonine-protein kinase/endoribonuclease IRE1 (Homo sapiens) (UniProt O75460); settings: Compound concentration 1000.0 nM
[15] = tested on: Receptor-type tyrosine-protein kinase FLT3 (Homo sapiens), P36888 [N841I]; settings: Compound concentration 1000.0 nM
[16] = target: Tyrosine-protein kinase FRK (Homo sapiens) (UniProt P42685); settings: Compound concentration 1000.0 nM
[17] = target: G protein-coupled receptor kinase 4 (Homo sapiens) (UniProt P32298); settings: Compound concentration 1000.0 nM
[18] = target: Serine/threonine-protein kinase ICK (Homo sapiens) (UniProt Q9UPZ9); settings: Compound concentration 1000.0 nM
[19] = target: Mast/stem cell growth factor receptor Kit (Homo sapiens) (UniProt P10721); settings: Compound concentration 1000.0 nM
[20] = target: LIM domain kinase 1 (Homo sapiens) (UniProt P53667); settings: Compound concentration 1000.0 nM
[21] = target: Serine/threonine-protein kinase STK11 (Homo sapiens) (UniProt Q15831); settings: Compound concentration 1000.0 nM
[22] = target: Misshapen-like kinase 1 (Homo sapiens) (UniProt Q8N4C8); settings: Compound concentration 1000.0 nM
[23] = target: Mitogen-activated protein kinase kinase kinase 10 (Homo sapiens) (UniProt Q02779); settings: Compound concentration 1000.0 nM
[24] = target: Muscle, skeletal receptor tyrosine-protein kinase (Homo sapiens) (UniProt O15146); settings: Compound concentration 1000.0 nM
Muscle, skeletal receptor tyrosine-protein kinase (Homo sapiens), sequence (O15146 whole entry): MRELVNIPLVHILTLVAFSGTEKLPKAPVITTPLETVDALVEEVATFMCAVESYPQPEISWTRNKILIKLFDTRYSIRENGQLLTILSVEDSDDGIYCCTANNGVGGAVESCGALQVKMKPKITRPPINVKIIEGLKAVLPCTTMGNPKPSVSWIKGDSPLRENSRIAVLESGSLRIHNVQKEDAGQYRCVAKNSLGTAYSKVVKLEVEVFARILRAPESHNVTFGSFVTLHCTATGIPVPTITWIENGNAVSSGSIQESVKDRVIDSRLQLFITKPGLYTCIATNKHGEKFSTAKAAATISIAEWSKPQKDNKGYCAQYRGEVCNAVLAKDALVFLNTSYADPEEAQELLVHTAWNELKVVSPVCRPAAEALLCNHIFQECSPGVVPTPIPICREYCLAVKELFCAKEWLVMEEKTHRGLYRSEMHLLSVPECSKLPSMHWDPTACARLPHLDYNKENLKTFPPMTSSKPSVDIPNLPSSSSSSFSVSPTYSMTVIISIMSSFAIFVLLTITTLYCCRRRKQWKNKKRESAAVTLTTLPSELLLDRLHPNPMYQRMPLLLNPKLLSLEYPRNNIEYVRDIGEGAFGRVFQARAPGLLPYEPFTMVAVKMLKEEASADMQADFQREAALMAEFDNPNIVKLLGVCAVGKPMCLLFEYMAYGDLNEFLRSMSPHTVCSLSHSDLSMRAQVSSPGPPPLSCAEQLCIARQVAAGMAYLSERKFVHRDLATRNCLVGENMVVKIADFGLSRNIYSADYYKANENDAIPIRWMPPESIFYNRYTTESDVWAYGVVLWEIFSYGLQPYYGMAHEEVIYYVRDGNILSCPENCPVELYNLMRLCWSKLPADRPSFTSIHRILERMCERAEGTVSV

[25] = target: Serine/threonine-protein kinase Nek7 (Homo sapiens) (UniProt Q8TDX7); settings: Compound concentration 1000.0 nM
[26] = target: Serine/threonine-protein kinase PAK 1 (Homo sapiens) (UniProt Q13153); settings: Compound concentration 1000.0 nM
[27] = target: Serine/threonine-protein kinase PAK 4 (Homo sapiens) (UniProt O96013); settings: Compound concentration 1000.0 nM
Serine/threonine-protein kinase PAK 4 (Homo sapiens), sequence (O96013 whole entry, looked up): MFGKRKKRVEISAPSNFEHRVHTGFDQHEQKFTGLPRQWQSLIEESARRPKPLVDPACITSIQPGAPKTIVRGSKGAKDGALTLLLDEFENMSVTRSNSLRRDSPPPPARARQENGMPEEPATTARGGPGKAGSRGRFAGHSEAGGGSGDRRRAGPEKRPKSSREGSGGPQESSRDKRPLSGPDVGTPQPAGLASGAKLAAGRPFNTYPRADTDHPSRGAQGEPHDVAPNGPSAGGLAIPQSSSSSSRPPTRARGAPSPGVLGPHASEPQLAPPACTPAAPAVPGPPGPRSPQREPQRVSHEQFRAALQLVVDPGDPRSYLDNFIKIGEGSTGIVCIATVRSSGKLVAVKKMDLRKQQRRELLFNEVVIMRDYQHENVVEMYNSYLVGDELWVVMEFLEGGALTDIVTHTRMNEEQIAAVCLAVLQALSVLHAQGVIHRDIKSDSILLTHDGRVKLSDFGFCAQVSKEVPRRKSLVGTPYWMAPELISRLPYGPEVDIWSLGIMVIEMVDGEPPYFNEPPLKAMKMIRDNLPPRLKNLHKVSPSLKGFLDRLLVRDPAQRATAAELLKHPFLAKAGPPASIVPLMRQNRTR

[28] = target: Cyclin-dependent kinase 17 (Homo sapiens) (UniProt Q00537); settings: Compound concentration 1000.0 nM
[29] = target: Cyclin-dependent kinase 2 homolog (Plasmodium falciparum (isolate 3D7)) (UniProt P61075); settings: Compound concentration 1000.0 nM
[30] = tested on: Phosphatidylinositol 4,5-bisphosphate 3-kinase catalytic subunit alpha isoform (Homo sapiens), P42336 [Q546K]; settings: Compound concentration 1000.0 nM
Phosphatidylinositol 4,5-bisphosphate 3-kinase catalytic subunit alpha isoform (Homo sapiens), P42336 [Q546K], sequence (P42336 whole entry Q546K, canonical isoform): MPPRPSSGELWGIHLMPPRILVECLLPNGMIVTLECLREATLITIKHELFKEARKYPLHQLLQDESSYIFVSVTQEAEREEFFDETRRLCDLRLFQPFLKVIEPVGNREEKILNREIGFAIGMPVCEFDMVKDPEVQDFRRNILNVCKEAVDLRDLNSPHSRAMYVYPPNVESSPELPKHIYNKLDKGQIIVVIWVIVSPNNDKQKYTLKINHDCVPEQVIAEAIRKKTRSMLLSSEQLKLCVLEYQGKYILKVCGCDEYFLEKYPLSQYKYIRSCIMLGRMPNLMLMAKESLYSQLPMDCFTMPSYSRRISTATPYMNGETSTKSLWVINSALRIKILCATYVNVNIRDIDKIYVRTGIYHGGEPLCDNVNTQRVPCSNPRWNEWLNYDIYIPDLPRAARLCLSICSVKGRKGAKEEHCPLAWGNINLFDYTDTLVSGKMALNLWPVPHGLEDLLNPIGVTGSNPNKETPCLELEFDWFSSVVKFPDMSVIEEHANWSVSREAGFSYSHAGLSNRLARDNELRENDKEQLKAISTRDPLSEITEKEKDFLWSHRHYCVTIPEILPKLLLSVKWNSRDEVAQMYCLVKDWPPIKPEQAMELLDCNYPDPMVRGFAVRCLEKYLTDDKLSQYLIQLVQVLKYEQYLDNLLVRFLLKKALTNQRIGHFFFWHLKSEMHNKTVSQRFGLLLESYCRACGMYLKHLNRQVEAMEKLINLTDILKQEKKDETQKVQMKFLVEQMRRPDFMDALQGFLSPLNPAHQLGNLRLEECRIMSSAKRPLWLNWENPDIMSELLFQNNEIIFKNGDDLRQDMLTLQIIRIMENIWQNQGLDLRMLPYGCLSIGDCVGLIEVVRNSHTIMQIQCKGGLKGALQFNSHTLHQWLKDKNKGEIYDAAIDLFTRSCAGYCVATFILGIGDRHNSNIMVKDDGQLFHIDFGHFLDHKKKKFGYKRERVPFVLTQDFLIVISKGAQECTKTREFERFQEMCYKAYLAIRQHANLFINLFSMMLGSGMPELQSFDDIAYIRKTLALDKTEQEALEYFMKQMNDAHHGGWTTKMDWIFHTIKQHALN

[31] = target: Serine/threonine-protein kinase pim-2 (Homo sapiens) (UniProt Q9P1W9); settings: Compound concentration 1000.0 nM
[32] = target: Phosphatidylinositol 4-phosphate 5-kinase type-1 alpha (Homo sapiens) (UniProt Q99755); settings: Compound concentration 1000.0 nM
[33] = target: Serine/threonine-protein kinase PRP4 homolog (Homo sapiens) (UniProt Q13523); settings: Compound concentration 1000.0 nM
[34] = target: RAF proto-oncogene serine/threonine-protein kinase (Homo sapiens) (UniProt P04049); settings: Compound concentration 1000.0 nM
[35] = tested on: Proto-oncogene tyrosine-protein kinase receptor Ret (Homo sapiens), P07949 [M918T]; settings: Compound concentration 1000.0 nM
[36] = target: Rho-associated protein kinase 2 (Homo sapiens) (UniProt O75116); settings: Compound concentration 1000.0 nM
[37] = target: Ribosomal protein S6 kinase alpha-3 (Homo sapiens) (UniProt P51812); settings: Compound concentration 1000.0 nM
[38] = target: Serine/threonine-protein kinase tousled-like 2 (Homo sapiens) (UniProt Q86UE8); settings: Compound concentration 1000.0 nM
[39] = target: Dual specificity protein kinase TTK (Homo sapiens) (UniProt P33981); settings: Compound concentration 1000.0 nM
[40] = target: Phosphatidylinositol 3-kinase catalytic subunit type 3 (Homo sapiens) (UniProt Q8NEB9); settings: Compound concentration 1000.0 nM
[41] = target: Serine/threonine-protein kinase 32B (Homo sapiens) (UniProt Q9NY57); settings: Compound concentration 1000.0 nM
[42] = target: Serine/threonine-protein kinase 25 (Homo sapiens) (UniProt O00506); settings: Compound concentration 1000.0 nM
[43] = target: 5-hydroxytryptamine receptor 2A (Homo sapiens) (UniProt P28223); settings: Compound concentration 10.0 uM
[44] = target: D(1B) dopamine receptor (Homo sapiens) (UniProt P21918); settings: Compound concentration 10.0 uM
[45] = target: Histamine H4 receptor (Homo sapiens) (UniProt Q9H3N8); settings: Compound concentration 10.0 uM

CN([C@@H]1CCc2c(CC(=O)O)c3ccccc3n2C1)S(=O)(=O)c1ccc(F)cc1 [MK-7246]
inactive: residual activity [1] 100% | residual activity [2] 96% | residual activity [3] 95% | residual activity [4] 100% | residual activity [5] 80% | residual activity [6] 91% | residual activity [7] 100% | residual activity [8] 100% | residual activity [9] 91% | residual activity [10] 66% | residual activity [11] 100% | residual activity [12] 95% | residual activity [13] 95% | residual activity [14] 94% | residual activity [15] 100% | residual activity [16] 100% | residual activity [17] 100% | residual activity [18] 100% | residual activity [19] 100% | residual activity [20] 100% | residual activity [21] 56% | residual activity [22] 100% | residual activity [23] 100% | residual activity [24] 97% | residual activity [25] 100% | residual activity [26] 96% | residual activity [27] 100% | residual activity [28] 100% | residual activity [29] 94% | residual activity [30] 100% | residual activity [31] 100% | residual activity [32] 100% | residual activity [33] 99% | residual activity [34] 100% | residual activity [35] 97% | residual activity [36] 100% | residual activity [37] 100% | residual activity [38] 100% | residual activity [39] 100% | residual activity [40] 97% | residual activity [41] 100% | residual activity [42] 99% | inhibition [43] -6.57% | inhibition [44] 1.94% | inhibition [45] 25.9%

CN([C@@H]1CCc2c(CC(=O)O)c3cc(S(C)(=O)=O)ccc3n2C1)S(=O)(=O)c1ccc(F)cc1
inactive: residual activity [1] 100% | residual activity [2] 99% | residual activity [3] 92% | residual activity [4] 83% | residual activity [5] 89% | residual activity [6] 83% | residual activity [7] 78% | residual activity [8] 100% | residual activity [9] 100% | residual activity [10] 80% | residual activity [11] 100% | residual activity [12] 94% | residual activity [13] 100% | residual activity [14] 100% | residual activity [15] 100% | residual activity [16] 100% | residual activity [17] 100% | residual activity [18] 93% | residual activity [19] 86% | residual activity [20] 100% | residual activity [21] 69% | residual activity [22] 92% | residual activity [23] 100% | residual activity [24] 100% | residual activity [25] 98% | residual activity [26] 95% | residual activity [27] 100% | residual activity [28] 100% | residual activity [29] 100% | residual activity [30] 100% | residual activity [31] 100% | residual activity [32] 100% | residual activity [33] 100% | residual activity [34] 100% | residual activity [35] 100% | residual activity [36] 100% | residual activity [37] 80% | residual activity [38] 100% | residual activity [39] 100% | residual activity [40] 100% | residual activity [41] 100% | residual activity [42] 100% | inhibition [43] 7.27% | inhibition [44] -6.04% | inhibition [45] 16%
